In patent US11220548B2, “Treatment of C1013G/CXCR4-associated Waldenstrom's macroglobulinemia with an anti-CXCR4 antibody” (BRISTOL-MYERS SQUIBB COMPANY, priority 2013, dated 2022):

How the values were obtained:
[1] = test system: WM cells; settings: cited from earlier work
[2] = test system: WM cells; settings: cited from earlier work; remark: listed apart in the source
[3] = test system: C1013G/CXCR4-WM cell lines (BCWM1; MWCL1); assay: Cytotoxicity (MTT) of anti-WM agents, 48 h exposure; format: cell-based, human; settings: vs control vector-infected cells
Text: FIGS. 13A and 13B show GSEA enrichment plots of multiple drug resistance and response to drug signature genes in C1013G/CXCR4-mutated cells and control vector-infected cells (control cells), respectively. The plotted curves show the enrichment score and reflect the degree to which each gene (vertical lines) is represented at the top or bottom of the ranked gene list. The heat map indicates the relative abundance (left to right) of the genes specifically enriched in the mutated cells as compared with the control cells. Gene sets were considered enriched with a FDR always <0.25. Normalized enrichments score (NES) and FDR are shown per each gene set analyzed. FIGS. 13C-13G show the effects on C1013G/CXCR4-WM cell lines (BCWM1; MWCL1) or control vector-infected cells (control) exposed to everolimus, ibrutinib, idelalisib, bortezomib, and carfilzomib for 48 h.
Everolimus, idelalisib, ibrutinib, bortezomib, and carfilzomib were purchased from Selleck Chemicals (Houston, Tex.). Drugs were dissolved in dimethylsulfoxide and subsequently diluted in cell culture medium (10% fetal bovine serum) immediately before use.

[4] = test system: BCWM.1-mCherry+ cells; assay: In vivo homing and tumor progression of wild-type WM cells; design: species or system SCID/Bg mice; settings: human IgM ELISA at end of study; P<0.05
Description: Serum was collected at the end of the study. […] Cell toxicity was performed by MTT. […] Bars indicate standard deviation.
Human serum IgM levels were determined by using a human IgM ELISA assay (ZeptoMetrix, Buffalo, N.Y.), according to the manufacturer's protocol.
SCID/Bg mice (n=5/group) were injected with BCWM.1 infected with either precision LentiORF/CXCR4/GFP (CXCR4^+)- or empty vector probe/RFP (control)-infected BCWM.1 cells. After three weeks, mice were euthanized and organs harvested. Hematoxylin-eosin staining, immunohistochemistry for human-CD20 and -CXCR4 were performed on explanted organs. Independent experiments were conducted to evaluate differences in survival (SCID/Bg mice, n=7/group). Similar studies were conducted using […]/CXCR4-mutated cells and control vector-infected cells (control cells). In vivo homing studies were performed using BCWM.1-mCherry^+ cells: cells were injected intravenously into […] mice and treated with either BMS-936564 or control antibody (10 mg/kg, intraperitoneally; 3-4 times per week for 3 weeks). The ability of BMS-936564 to modulate WM homing to BM, spleen and lymph nodes was evaluated ex vivo at the third week on explanted tissues, by using a fluorescence microscope (Nikon Eclipse 80i, Melville, N.Y.) (Roccaro et al., 2013).
The anti-WM activity of BMS-936564 was also tested in vivo using wild-type WM cells. BCWM.1-mCherry^+ cells were injected intravenously into SCID/Bg mice and treated mice with either BMS-936564 or control antibody.
As CXCR4 inhibition is thought to induce stem cell and tumor cell mobilization, it was hypothesized that BMS-936564 may also induce mobilization of WM cells leading to increased chemosensitivity to anti-WM agents. Accordingly, the effect of BMS-936564 in modulating tumor progression and WM cell dissemination to distant BM niches in vivo was evaluated as monotherapy or in combination with bortezomib.

SMILES	migration of WM cells [1]	adhesion of WM cells to fibronectin, stromal cells, and endothelial cells [2]	sensitivity of C1013G/CXCR4-mutated WM cells compared with unmutated control cells [3]	serum IgM levels [4]
c1cc(CN2CCCNCCNCCCNCC2)ccc1CN1CCCNCCNCCCNCC1 [AMD3100, plerixafor]	significantly inhibit	significantly inhibit		
CC(C)C[C@H](NC(=O)[C@H](Cc1ccccc1)NC(=O)c1cnccn1)B(O)O [bortezomib, reference compound]			equally sensitive	significantly reduced
CC(C)C[C@H](NC(=O)[C@H](CCc1ccccc1)NC(=O)CN1CCOCC1)C(=O)N[C@@H](Cc1ccccc1)C(=O)N[C@@H](CC(C)C)C(=O)[C@@]1(C)CO1 [carfilzomib]			equally sensitive	
CO[C@H]1C[C@@H]2CC[C@@H](C)[C@@](O)(O2)C(=O)C(=O)N2CCCC[C@H]2C(=O)O[C@H]([C@H](C)C[C@@H]2CC[C@@H](OCCO)[C@H](OC)C2)CC(=O)[C@H](C)/C=C(\C)[C@@H](O)[C@@H](OC)C(=O)[C@H](C)C[C@H](C)/C=C/C=C/C=C/1C [everolimus]			resistance	
CC[C@H](Nc1ncnc2[nH]cnc12)c1nc2cccc(F)c2c(=O)n1-c1ccccc1 [idelalisib]			resistance	
